Test results from US4842845A, “Radioactive metal chelates for dipyridoxyl phosphate” (Salutar, Inc., priority 1987, dated 1989).

Assay: Potentiometric titration of DPDP (pH 11.2 to 2.0), protonation sites
Type: physicochemical
Details: at a pH of 3 and above
Protocol: The compound DPDP was studied potentiometrically from pH 11.2 to 2.0. Data sets were collected on a custom-built automatic potentiometric titration apparatus composed of a METROHM 655 DOSIMAT automatic buret, a FISHER ACCUMET pH meter with a CORNING calomel combination electrode, a custom-blown water jacketed titration cell, a BRINKMAN LAUDA K-2/R constant temperature bath and a COMMODORE 64 computer. […] Data analysis was performed on an IBM-AT computer using the least squares program, BETA (Harris, W. et al, supra), and the data analysis program, HANDNBAR (Harris, W. et al, supra). […] All solutions were made from distilled, deionized water that was further purified on a MILLI-Q cartridge system, degassed, and then kept under an atmosphere of argon which had been scrubbed for CO2 and O2.

Cc1ncc(COP(=O)(O)O)c(CN(CCN(CC(=O)O)Cc2c(COP(=O)(O)O)cnc(C)c2O)CC(=O)O)c1O [DPDP, N,N'-bis-(pyridoxal-5-phosphate)-ethylenediamine-N,N'-diacetic acid]
Protonation / charge state of the ligand (dissociation constants assigned to the protonation sites): anionic and possesses deprotonated metal binding sites
